“And” between values parts separate entries of the source, which are not always exact repeats. Identical values can stand only once.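 The compound was tested at five concentrations on cells cultured in 96-well plates, with a 48-hour exposure period. GI50 = concentration required for 50% inhibition of growth. TGI denotes the concentration required for complete inhibition of growth.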
Tests used:
Experiment in all cases: NCI anticancer screen, dose series, 48 h
A549 NSCLC = system: A549 NSCLC
BT-549 breast = system: BT-549 breast
HOP-92 NSCLC = system: HOP-92 NSCLC
IGROV1 ovarian = system: IGROV1 ovarian
M14 melanoma = system: M14 melanoma
MOLT-4 leukemia = system: MOLT-4 leukemia
OVCAR-3 ovarian = system: OVCAR-3 ovarian
PC-3 prostate = system: PC-3 prostate
SF-268 CNS = system: SF-268 CNS
TK-10 renal = system: TK-10 renal

SMILES | GI50 (A549 NSCLC) | TGI (A549 NSCLC) | GI50 (BT-549 breast) | TGI (BT-549 breast) | GI50 (HOP-92 NSCLC) | TGI (HOP-92 NSCLC) | GI50 (IGROV1 ovarian) | TGI (IGROV1 ovarian) | GI50 (M14 melanoma) | TGI (M14 melanoma) | GI50 (MOLT-4 leukemia) | GI50 (OVCAR-3 ovarian) | TGI (OVCAR-3 ovarian) | GI50 (PC-3 prostate) | TGI (PC-3 prostate) | GI50 (SF-268 CNS) | TGI (SF-268 CNS) | GI50 (TK-10 renal) | TGI (TK-10 renal) | TGI (MOLT-4 leukemia)
COc1cc2c3c(n(C)c(=O)c2cc1OC)-c1cc2c(cc1/C3=C\CCN)OCO2 | 0.165 µM | 4.44 µM | 2130 nM | 46.1 µM | 1.32 µM | 26.5 µM | 882 nM | > 53.6 µM | 0.22 µM | 4.82 µM | < 10 nM | 0.564 µM | 5.09 µM | 0.324 µM | 2.94 µM | 0.167 µM | 16.6 µM | 1.17 µM | 6.72 µM | 
COc1cccc(-c2nc(-c3ccc(NC(=O)C(C)C)cc3)[nH]c2-c2ccnc(Br)c2)c1 | 3.45 µM | > 100 µM | 2040 nM | 80.1 µM | 3.58 µM | 48.4 µM | 3550 nM | > 100 µM | 3.3 µM | > 100 µM | 2560 nM | 3.38 µM | > 100 µM | 3.02 µM | > 100 µM | 4.07 µM | > 100 µM | 4.35 µM | > 100 µM | > 100 µM
Cc1cc(O)c(/C=N/C(=S)NCc2ccccc2)c(=O)o1 |  | > 100 µM |  | > 100 µM |  | > 100 µM |  | > 100 µM |  | > 100 µM |  |  | > 100 µM |  | > 100 µM |  | > 100 µM |  | > 100 µM | > 100 µM
COc1ccc(-c2nnc(COc3ccc(NC(=O)Nc4cc(C(F)(F)F)cc(C(F)(F)F)c4)cc3F)o2)cc1 | 1.58 µM | 7.15 µM | 2540 nM | 6.05 µM | 1.5 µM | 4.58 µM | 2950 nM | 10.9 µM | 2.97 µM | 11.4 µM | 2680 nM | 1.5 µM | 4.66 µM | 1 µM | 4.34 µM | 3.04 µM | 9.94 µM | 3.49 µM | 12.4 µM | 14.1 µM
Cc1ccccc1S(=O)(=O)OC1NS(=O)(=O)c2ccccc21 (stereo not given) |  | > 100 µM |  | > 100 µM |  | > 100 µM |  | > 100 µM |  | > 100 µM |  |  | > 100 µM |  | > 100 µM |  | > 100 µM |  | > 100 µM | > 100 µM
O=C(CCc1nnc2sc(-c3ccc(Cl)cc3Cl)nn12)c1nc2ncccc2[nH]1 | 2.78 µM | 10.4 µM | 1980 nM | 4.36 µM | 1.19 µM | 2.6 µM | 1820 nM | 3.8 µM | 3.35 µM | 16.5 µM | 1150 nM | 1.52 µM | 3.1 µM | 1.63 µM | 3.63 µM | 3.99 µM | 21.4 µM | 2.53 µM | 5.16 µM | 60.8 µM
COc1ccc(-c2nnc(COc3ccc(C(=O)/C=C/c4ccco4)cc3)o2)cc1 | 3.33 µM | 13.8 µM | 2870 nM | 8.16 µM | 2.9 µM | 16.9 µM | 2080 nM | 4.38 µM | 4.03 µM | 14.6 µM | 2890 nM | 1.95 µM | 3.95 µM | 3.33 µM | 11.8 µM | 2.76 µM | 8.25 µM | 2.81 µM | 6.25 µM | 9.05 µM
Nc1ncnc2c1nnn2C1OC(CO)C(O)C1O (stereo not given) |  | 19.2 µM | 496 nM | 5.75 µM |  | 7 µM |  | 3.95 µM | 0.261 µM | 4.91 µM |  |  | 9.26 µM | 0.247 µM | 5.38 µM |  | 18.8 µM | 0.151 µM | 3.39 µM | 22.2 µM
CC[C@H](Nc1ncnc2nc[nH]c12)c1oc2ccccc2c(=O)c1-c1cccc(F)c1 | 29.2 µM | > 100 µM | 21100 nM | > 100 µM | 4.99 µM | 63.7 µM | 15200 nM | 53.8 µM | 28.1 µM | > 100 µM | 13100 nM | 18.3 µM | > 100 µM | 12.4 µM | > 100 µM | 22.6 µM | > 100 µM | 19.5 µM | 95.6 µM | 49.1 µM
CC(=O)OC1=CC(n2cc(F)c(=O)[nH]c2=O)OC(C)C1=O (stereo not given) |  | > 63.1 µM |  | > 100 µM |  | > 100 µM |  | > 100 µM |  | > 100 µM |  |  | > 100 µM |  | > 100 µM |  | > 100 µM |  | > 100 µM | > 100 µM
Cc1cc(I)cc(CN(C)CCCN2CCCCC2)c1O | 16.8 µM | 35.7 µM | 10700 nM | 22.9 µM | 11.6 µM | 38.6 µM | 15400 nM | 32.5 µM | 14.4 µM | 27.5 µM | 3200 nM | 15.9 µM | 33.1 µM | 15.4 µM | 32.9 µM | 13.1 µM | 27.5 µM | 19.8 µM | 37.7 µM | 13.4 µM
CN(C)CCSC1=Nc2ccc(Cl)cc2C(c2ccccc2Cl)=NC1 | 13.8 µM and 88.8 µM | 31.7 µM and > 100 µM |  | > 100 µM | 12.3 µM and 72.3 µM | 31.7 µM and > 100 µM |  | > 100 µM | 15.8 µM and > 100 µM | 36.4 µM and > 100 µM |  | 17.3 µM and > 100 µM | 31.8 µM and > 100 µM | 15.4 µM and 57.7 µM | 33.4 µM and > 100 µM | 13.9 µM and 99.4 µM | 28.2 µM and > 100 µM | 17.5 µM and 63.4 µM | 33.1 µM and > 100 µM | > 100 µM and 94.3 µM
